Values after ≈ are worked out from the molar mass of the structure shown. Active and inactive are the calls of the source. The calls are words filed in the database; no cut-off is given here.

We go through two compounds from ChEMBL document CHEMBL3608262, “Lepidotol A from Mesua lepidota Inhibits Inflammatory and Immune Mediators in Human Endothelial Cells” (J Nat Prod, 2015).

The nature of data set [1]: Inhibition of pentosidine-type advanced glycation end products formation using bovine serum albumin after 24 hrs by microtiter plate assay. Format: functional.
Data set [2] can be described thus: Inhibition of vesperlysine-type advanced glycation end products formation using bovine serum albumin after 24 hrs by microtiter plate assay. Format: functional.
The test system of data set [3] is HUVEC. The experiment in a line: Antiinflammatory activity in HUVEC assessed as inhibition of HLA-E expression at 10 uM after 1 hr by flow cytometry analysis. The class given is functional, cell-based. The conditions noted are these: Homo sapiens.
The test system of data set [4] is HUVEC. Kind of data set: Antiinflammatory activity in HUVEC assessed as inhibition of HLA-I expression at 10 uM after 1 hr by flow cytometry analysis. The class given is functional, cell-based. The conditions noted are these: Homo sapiens. A general note: Flow cytometry measures light scatter and fluorescence of single cells or particles in a stream.
Data set [5] concerns HUVEC. The experiment in a line: Cytotoxicity against TNFalpha-stimulated HUVEC at 10 uM after 6 hrs by MTT assay. The class given is cell-based. The conditions noted are these: human. A general note: Formazan colour is commonly taken as a measure of viable cells.
The subject of data set [6] is HUVEC. The experiment in a line: Antiinflammatory activity in HUVEC assessed as inhibition of TNFalpha-induced E-selectin expression at 10 uM after 1 hr by flow cytometry analysis. Format: functional, cell-based. The conditions noted are these: Homo sapiens.
The subject of data set [7] is HUVEC. The experiment in a line: Antiinflammatory activity in HUVEC assessed as inhibition of TNFalpha-induced VCAM1 expression after 1 hr by flow cytometry analysis. The class given is functional, cell-based. The conditions noted are these: Homo sapiens.
The test system of data set [8] is HUVEC. Kind of data set: Antiinflammatory activity in HUVEC assessed as inhibition of IFNgamma-induced HLA-II expression at 10 uM after 1 hr by flow cytometry analysis. The class given is functional. The conditions noted are these: Homo sapiens.
Data set [9] deals with HUVEC. Kind of data set: Induction of ICAM1 expression in HUVEC after 1 hr by flow cytometry analysis. Format: cell-based. The conditions noted are these: human.
Data set [10] deals with HUVEC. Kind of data set: Antiinflammatory activity in HUVEC assessed as inhibition of TNFalpha-induced VCAM1 expression at 10 uM after 1 hr by flow cytometry analysis. Format: functional. The conditions noted are these: Homo sapiens.
Data set [11] concerns HUVEC. Kind of data set: Induction of E-selectin expression in HUVEC after 1 hr by flow cytometry analysis. The conditions noted are these: human. Format: cell-based.
For data set [12], the system named is HUVEC. Kind of data set: Antiinflammatory activity in HUVEC assessed as inhibition of TNFalpha-induced ICAM1 expression at 10 uM after 1 hr by flow cytometry analysis. Format: functional. The conditions noted are these: Homo sapiens.
Data set [13] deals with HUVEC. Kind of data set: Antiinflammatory activity in HUVEC assessed as inhibition of IFNgamma-induced HLA-E expression at 10 uM after 1 hr by flow cytometry analysis. The class given is functional. The conditions noted are these: Homo sapiens.
The subject of data set [14] is HUVEC. The experiment in a line: Antiinflammatory activity in HUVEC assessed as inhibition of MICA expression at 10 uM after 1 hr by flow cytometry analysis. The class given is functional, cell-based. The conditions noted are these: Homo sapiens.
In data set [15] the test system is HUVEC. The experiment in a line: Induction of VCAM1 expression in HUVEC after 1 hr by ELISA. Format: cell-based. The conditions noted are these: human.

Usually IC50 stands for the concentration needed to halve the response being measured. With `N=C(N)NN` [PIMAGEDINE], the IC50 came to 150 µg/mL (≈ 2.02 mM) in data set [1] and 700 µg/mL (≈ 9.45 mM) in data set [2].

The term inhibition denotes the relative decrease from the control value, in per cent. `CC(C)=CCC1(CC=C(C)C)C(=O)c2c(-c3ccccc3)cc(=O)oc2C(C(=O)C(C)C)=C1O`: the inhibition entry in the data set with HUVEC [3] and in the data set on HUVEC [14] was “Active” throughout. Moreover, the inhibition result in the data set with HUVEC [4] and with HUVEC [6] was “inactive” in each case. Also, the Activity entry with HUVEC [5], in the data set with HUVEC [9], in the data set with HUVEC [11] and in the data set on HUVEC [15] was “Non-toxic” in each case. Moreover, the IC50 in the data set on HUVEC [7] worked out at 10.2 µM. Also, the inhibition at 10 µM in the data set on HUVEC [8] is no more than 95%; in the data set on HUVEC [10], no more than 52%; in the data set with HUVEC [12] it was no more than 23%; with HUVEC [13], no more than 95%.
